Measured values: patent publication US10738028B2, “Spiro three-membered ring, spiro five-membered ring peptide deformylase inhibitor and use thereof in antibacteria and anti-tumor” (priority 2016, dated 2020)
Converted amounts (≈) assume the structure as drawn.

Columns and labels:
Type in all cases: cell-based
[1] = system: methicillin-sensitive Staphylococcus aureus (MSSA); assay: MIC, two-fold agar dilution (CLSI), clinical isolates
Text: (§1) 1. The invention adopts the two-fold agar dilution method recommended by the operating procedure of antimicrobial susceptibility testing set by American Clinical and Laboratory Standards Institute (CLSI) to determine the Minimum Inhibitory Concentration (MIC) of the test samples against the tested strains.

[2] = system: methicillin-resistant Staphylococcus epidermidis (MRSE); assay: as above
Text: as §1

[3] = system: methicillin-sensitive Staphylococcus epidermidis (MSSE); assay: as above
Text: as §1

[4] = system: Moraxella catarrhalis (BCA); assay: as above
Text: as §1

[5] = system: Escherichia coli (including ESBLs, non-ESBLs); assay: as above
Text: as §1

[6] = system: Streptococcus pneoumoniae (SPN); assay: as above
Text: as §1

[7] = system: methicillin-resistant Staphylococcus aureus (MRSA); assay: as above
Text: as §1

[8] = system: Enterococcus faecalis (EFA); assay: as above
Text: as §1

[9] = system: Enterococcus faecium (EFM); assay: as above
Text: as §1

[10] = system: HCT-116 colorectal cancer cell line; assay: CCK-8 proliferation inhibition; details: Homo sapiens, HCT-116, 72 h, concentration of 30 μM; 72 hours; CCK-8; read-out: HCT116 inhibition rate/%
Method: (1) HCT-116 colorectal cancer cell line, A549 lung cancer cell line, MGC-803 gastric cancer cell line, BEL-7402 liver cancer cell line, Jurkat T cell leukemia cell line, HL60 acute myeloid leukemia cell line, Hela cervical cancer cell line, MCF-7 breast cancer cell line, PC3 prostate cancer cell line and SAOS-2 osteosarcoma cell line were made into single cell suspension, 180 μL of which was inoculated into 96-well culture plate, which was cultured overnight in CO2 incubator (37° C., 5% CO2, 95% air).
(2) Each of the spiro three-membered ring, spiro five membered ring peptide deformylase inhibitors was dissolved in DMSO, and was further formulated into drug solution with required different final concentration using corresponding cell culture medium. The drug solutions were added to the above cells respectively (20 μL/well), with the control group added with 1‰ DMSO, and cultured in a CO2 incubator for 72 hours.
(3) After incubation for 72 hours, the culture solution was decanted, and 100 μL of 1:10 diluted CCK-8 solution was added.
Wherein, in step (1), the concentration of the single cell suspension was 2000 cells/well.
Wherein, in step (2), HCT-116 cells were cultured in McCoy's 5A medium (containing 10% newborn bovine serum, 1% double antibody); A549 and PC3 cells were cultured in F12 medium (containing 10% newborn bovine serum, 1% double antibody); MGC-803, BEL-7402, SAOS-2, Jurkat and HL60 cells were cultured in 1640 medium (containing 10% newborn bovine serum, 1% double antibody); and MCF-7 and Hela cells were cultured in DMEM high glucose medium (containing 10% newborn bovine serum, 1% double antibody).

With `CCCC[C@H](CN(O)C=O)C(=O)N1CC2(CC2)C[C@H]1C(=O)Nc1ccc(N2CCOCC2)cc1` [Example 14] the MIC (anti-bacterial activity) ([1]; strain MSSA 15-3) was 1 µg/mL (≈ 2.12 µM), the MIC (anti-bacterial activity) ([1]; strain MSSA 15-4) was 1 µg/mL (≈ 2.12 µM) and the MIC (anti-bacterial activity) ([1]; strain MSSA 15-5) was 0.25 µg/mL (≈ 0.529 µM). It also gave an MIC (anti-bacterial activity) ([1]; strain MSSA 15-6) of 1 µg/mL (≈ 2.12 µM), an MIC (anti-bacterial activity) ([2]; strain MRSE 15-1) of 0.25 µg/mL (≈ 0.529 µM) and an MIC (anti-bacterial activity) ([2]; strain MRSE 15-2) of 0.25 µg/mL (≈ 0.529 µM). For the same compound, the MIC (anti-bacterial activity) ([2]; strain MRSE 15-3) was 1 µg/mL (≈ 2.12 µM), the MIC (anti-bacterial activity) ([2]; strain MRSE 15-7) was 1 µg/mL (≈ 2.12 µM) and the MIC (anti-bacterial activity) ([3]; strain MSSE 15-3) was 0.25 µg/mL (≈ 0.529 µM). It also gave an MIC (anti-bacterial activity) ([3]; strain MSSE 15-4) of 0.25 µg/mL (≈ 0.529 µM), an MIC (anti-bacterial activity) ([3]; strain MSSE 15-5) of 0.25 µg/mL (≈ 0.529 µM) and an MIC (anti-bacterial activity) ([3]; strain MSSE 15-6) of 0.125 µg/mL (≈ 0.265 µM). The MIC (anti-bacterial activity) ([4]; strain BCA 14-1) was 4 µg/mL (≈ 8.46 µM), the MIC (anti-bacterial activity) ([4]; strain BCA 14-4) was 2 µg/mL (≈ 4.23 µM) and the MIC (anti-bacterial activity) ([4]; strain BCA 14-5) was 2 µg/mL (≈ 4.23 µM). For the same compound, the MIC (anti-bacterial activity) ([4]; strain BCA 14-6) was 2 µg/mL (≈ 4.23 µM), the MIC (anti-bacterial activity) ([4]; strain BCA 14-7) was 1 µg/mL (≈ 2.12 µM) and the MIC (anti-bacterial activity) ([4]; strain BCA 14-8) was 2 µg/mL (≈ 4.23 µM). The MIC (anti-bacterial activity) ([4]; strain BCA 14-10) was 0.5 µg/mL (≈ 1.06 µM), the MIC (anti-bacterial activity) ([5]; strain ECO+ 15-1) was over 32 µg/mL and the MIC (anti-bacterial activity) ([5]; strain ECO+ 15-2) was over 32 µg/mL. It also gave an MIC (anti-bacterial activity) ([5]; strain ECO+ 15-3) of over 32 µg/mL, an MIC (anti-bacterial activity) ([5]; strain ECO+ 15-4) of over 32 µg/mL and an MIC (anti-bacterial activity) ([5]; strain ECO− 15-1) of over 32 µg/mL. The MIC (anti-bacterial activity) ([5]; strain ECO− 15-2) was over 32 µg/mL, the MIC (anti-bacterial activity) ([5]; strain ECO− 15-3) was over 32 µg/mL and the MIC (anti-bacterial activity) ([5]; strain ECO− 15-4) was over 32 µg/mL. For the same compound, the MIC (anti-bacterial activity) ([6]; strain SPN 16-2) was 8 µg/mL (≈ 16.9 µM), the MIC (anti-bacterial activity) ([6]; strain SPN 16-4) was 0.5 µg/mL (≈ 1.06 µM) and the MIC (anti-bacterial activity) ([7]; strain MRSA 15-1) was 1 µg/mL (≈ 2.12 µM). The MIC (anti-bacterial activity) ([7]; strain MRSA 15-2) was 1 µg/mL (≈ 2.12 µM), the MIC (anti-bacterial activity) ([7]; strain MRSA 15-3) was 1 µg/mL (≈ 2.12 µM) and the MIC (anti-bacterial activity) ([7]; strain MRSA 15-4) was 1 µg/mL (≈ 2.12 µM). The MIC (anti-bacterial activity) ([8]; strain EFA 15-1) was 8 µg/mL (≈ 16.9 µM), the MIC (anti-bacterial activity) ([8]; strain EFA 15-2) was 8 µg/mL (≈ 16.9 µM) and the MIC (anti-bacterial activity) ([8]; strain EFA 15-3) was 2 µg/mL (≈ 4.23 µM). It also gave an MIC (anti-bacterial activity) ([8]; strain EFA 15-4) of 8 µg/mL (≈ 16.9 µM), an MIC (anti-bacterial activity) ([8]; strain EFA 15-5) of 8 µg/mL (≈ 16.9 µM) and an MIC (anti-bacterial activity) ([8]; strain EFA 15-6) of 8 µg/mL (≈ 16.9 µM). For the same compound, the MIC (anti-bacterial activity) ([8]; strain EFA 15-9) was 8 µg/mL (≈ 16.9 µM), the MIC (anti-bacterial activity) ([9]; strain EFM 15-1) was 1 µg/mL (≈ 2.12 µM) and the MIC (anti-bacterial activity) ([9]; strain EFM 15-2) was 2 µg/mL (≈ 4.23 µM). For the same compound, the MIC (anti-bacterial activity) ([9]; strain EFM 15-3) was 0.5 µg/mL (≈ 1.06 µM), the MIC (anti-bacterial activity) ([9]; strain EFM 15-4) was 4 µg/mL (≈ 8.46 µM) and the MIC (anti-bacterial activity) ([9]; strain EFM 15-5) was 0.5 µg/mL (≈ 1.06 µM). The MIC (anti-bacterial activity) ([9]; strain EFM 15-6) was 2 µg/mL (≈ 4.23 µM) and the inhibition at 30 µM [10] was 21%.
Work on `CCCC[C@H](CN(O)C=O)C(=O)N1CC2(CC2)C[C@H]1C(=O)Nc1cnccn1` [Example 15] yielded an MIC (anti-bacterial activity) ([1]; strain MSSA 15-3) of 0.25 µg/mL (≈ 0.642 µM), an MIC (anti-bacterial activity) ([1]; strain MSSA 15-4) of 0.125 µg/mL (≈ 0.321 µM) and an MIC (anti-bacterial activity) ([1]; strain MSSA 15-5) of 0.125 µg/mL (≈ 0.321 µM). It also gave an MIC (anti-bacterial activity) ([1]; strain MSSA 15-6) of 0.125 µg/mL (≈ 0.321 µM), an MIC (anti-bacterial activity) ([2]; strain MRSE 15-1) of 0.125 µg/mL (≈ 0.321 µM) and an MIC (anti-bacterial activity) ([2]; strain MRSE 15-2) of 0.25 µg/mL (≈ 0.642 µM). The MIC (anti-bacterial activity) ([2]; strain MRSE 15-3) was 0.25 µg/mL (≈ 0.642 µM), the MIC (anti-bacterial activity) ([2]; strain MRSE 15-7) was 0.25 µg/mL (≈ 0.642 µM) and the MIC (anti-bacterial activity) ([3]; strain MSSE 15-3) was 0.25 µg/mL (≈ 0.642 µM). It also gave an MIC (anti-bacterial activity) ([3]; strain MSSE 15-4) of 0.06 µg/mL (≈ 0.154 µM), an MIC (anti-bacterial activity) ([3]; strain MSSE 15-5) of 0.06 µg/mL (≈ 0.154 µM) and an MIC (anti-bacterial activity) ([3]; strain MSSE 15-6) of 0.06 µg/mL (≈ 0.154 µM). It also gave an MIC (anti-bacterial activity) ([4]; strain BCA 14-1) of 0.5 µg/mL (≈ 1.28 µM), an MIC (anti-bacterial activity) ([4]; strain BCA 14-4) of 0.5 µg/mL (≈ 1.28 µM) and an MIC (anti-bacterial activity) ([4]; strain BCA 14-5) of 0.125 µg/mL (≈ 0.321 µM). For the same compound, the MIC (anti-bacterial activity) ([4]; strain BCA 14-6) was 1 µg/mL (≈ 2.57 µM), the MIC (anti-bacterial activity) ([4]; strain BCA 14-7) was 0.125 µg/mL (≈ 0.321 µM) and the MIC (anti-bacterial activity) ([4]; strain BCA 14-8) was 0.5 µg/mL (≈ 1.28 µM). For the same compound, the MIC (anti-bacterial activity) ([4]; strain BCA 14-10) was 0.125 µg/mL (≈ 0.321 µM), the MIC (anti-bacterial activity) ([5]; strain ECO+ 15-1) was 32 µg/mL (≈ 82.2 µM) and the MIC (anti-bacterial activity) ([5]; strain ECO+ 15-2) was 64 µg/mL (≈ 164 µM). The MIC (anti-bacterial activity) ([5]; strain ECO+ 15-3) was 32 µg/mL (≈ 82.2 µM), the MIC (anti-bacterial activity) ([5]; strain ECO+ 15-4) was 32 µg/mL (≈ 82.2 µM) and the MIC (anti-bacterial activity) ([5]; strain ECO− 15-1) was 32 µg/mL (≈ 82.2 µM). The MIC (anti-bacterial activity) ([5]; strain ECO− 15-2) was 64 µg/mL (≈ 164 µM), the MIC (anti-bacterial activity) ([5]; strain ECO− 15-3) was 64 µg/mL (≈ 164 µM) and the MIC (anti-bacterial activity) ([5]; strain ECO− 15-4) was 64 µg/mL (≈ 164 µM). The MIC (anti-bacterial activity) ([6]; strain SPN 16-2) was 0.015 µg/mL (≈ 0.0385 µM), the MIC (anti-bacterial activity) ([6]; strain SPN 16-4) was 0.5 µg/mL (≈ 1.28 µM) and the MIC (anti-bacterial activity) ([7]; strain MRSA 15-1) was 0.125 µg/mL (≈ 0.321 µM). For the same compound, the MIC (anti-bacterial activity) ([7]; strain MRSA 15-2) was 0.25 µg/mL (≈ 0.642 µM), the MIC (anti-bacterial activity) ([7]; strain MRSA 15-3) was 0.125 µg/mL (≈ 0.321 µM) and the MIC (anti-bacterial activity) ([7]; strain MRSA 15-4) was 0.25 µg/mL (≈ 0.642 µM). For the same compound, the MIC (anti-bacterial activity) ([8]; strain EFA 15-1) was 1 µg/mL (≈ 2.57 µM), the MIC (anti-bacterial activity) ([8]; strain EFA 15-2) was 1 µg/mL (≈ 2.57 µM) and the MIC (anti-bacterial activity) ([8]; strain EFA 15-3) was 1 µg/mL (≈ 2.57 µM). For the same compound, the MIC (anti-bacterial activity) ([8]; strain EFA 15-4) was 1 µg/mL (≈ 2.57 µM), the MIC (anti-bacterial activity) ([8]; strain EFA 15-5) was 4 µg/mL (≈ 10.3 µM) and the MIC (anti-bacterial activity) ([8]; strain EFA 15-6) was 4 µg/mL (≈ 10.3 µM). For the same compound, the MIC (anti-bacterial activity) ([8]; strain EFA 15-9) was 1 µg/mL (≈ 2.57 µM), the MIC (anti-bacterial activity) ([9]; strain EFM 15-1) was 1 µg/mL (≈ 2.57 µM) and the MIC (anti-bacterial activity) ([9]; strain EFM 15-2) was 1 µg/mL (≈ 2.57 µM). For the same compound, the MIC (anti-bacterial activity) ([9]; strain EFM 15-3) was 0.125 µg/mL (≈ 0.321 µM), the MIC (anti-bacterial activity) ([9]; strain EFM 15-4) was 1 µg/mL (≈ 2.57 µM) and the MIC (anti-bacterial activity) ([9]; strain EFM 15-5) was 0.125 µg/mL (≈ 0.321 µM). The MIC (anti-bacterial activity) ([9]; strain EFM 15-6) was 1 µg/mL (≈ 2.57 µM) and the inhibition at 30 µM [10] was 24%.
